Measurements reported in BigSolDB 2.1.

C[C@@H](Oc1ccc(Oc2nc3ccc(Cl)cc3o2)cc1)C(=O)N(C)c1ccccc1F
solubility (mole fraction)
Details | in cyclohexane | in isobutanol | in isopentanol | in isopropanol | in n-butanol | in n-hexane | in n-pentanol | in n-propanol | in sec-butanol
278.15 K | – | 0.00347 | 0.00526 | 0.00231 | 0.00631 | 0.000329 | 0.00739 | 0.00476 | 0.00344
283.15 K | 0.00449 | 0.00487 | 0.00724 | 0.00315 | 0.00822 | 0.000495 | 0.00951 | 0.00646 | 0.00491
288.15 K | 0.00627 | 0.00676 | 0.00977 | 0.00422 | 0.0109 | 0.000594 | 0.0123 | 0.00876 | 0.00683
293.15 K | 0.00814 | 0.00921 | 0.013 | 0.00543 | 0.0139 | 0.000811 | 0.015 | 0.0115 | 0.00919
298.15 K | 0.0115 | 0.0126 | 0.0173 | 0.00714 | 0.0183 | 0.00112 | 0.0187 | 0.0155 | 0.0122
303.15 K | 0.0146 | 0.0169 | 0.0216 | 0.00963 | 0.0237 | 0.00156 | 0.0228 | 0.0209 | 0.016
308.15 K | 0.0208 | – | – | – | – | 0.00196 | – | – | –
313.15 K | 0.0287 | – | – | – | – | 0.00245 | – | – | –
